Values of other authors as cited in patent publication US7312207B2, “Topical steroid cream formulations” (Taro Pharmaceuticals North America, Inc., priority 2004, dated 2007).

C[C@@H]1C[C@H]2[C@@H]3CCC4=CC(=O)C=C[C@]4(C)[C@@]3(Cl)[C@@H](O)C[C@]2(C)[C@@]1(OC(=O)c1ccco1)C(=O)CCl [Mometasone furoate, 9(alpha), 21-Dichloro-11(beta), 17-dihydroxy-16(alpha)-methylpregna-1,4-diene-3,20 dione 17-(2-furoate)]
solubility in ethyl alcohol (ethyl alcohol): moderately soluble | solubility in octanol (octanol): slightly soluble | solubility in water (water): insoluble
